Patent publication US9732063B2, “Kinase inhibitors” (RESPIVERT LIMITED, priority 2012, dated 2017)

Columns and labels:
PBMCs [1] = assay: LPS-induced TNFα/IL-8 release in PBMC cells; type: cell-based; settings: Homo sapiens, read-out: IC50 Values for Inhibition of Cytokine Release PBMCs IL-8
Experimental: Peripheral blood mononuclear cells (PBMCs) from healthy subjects are separated from whole blood using a density gradient (Lymphoprep, Axis-Shield Healthcare). The PBMCs are seeded in 96 well plates and treated with compounds at the desired concentration for 2 hours before addition of 1 ng/mL LPS (Escherichia Coli O111:B4 from Sigma Aldrich) for 24 hours under normal tissue culture conditions (37° C., 5% CO2). The supernatant is harvested for determination of IL-8 and TN Fa concentrations by sandwich ELISA (Duo-set, R&D systems) and read on the fluorescence microplate reader (Varioskan® Flash, ThermoFisher Scientific).

GSK3α = GSK3α (Homo sapiens (Human), UniProt P49840); assay: GSK 3α enzyme inhibition (Z-LYTE FRET, Method 2); type: biochemical
Experimental: The enzyme inhibitory activities of compounds disclosed herein are determined by FRET using synthetic peptides labelled with both donor and acceptor fluorophores (Z-LYTE, Invitrogen Ltd., Paisley, UK).
The inhibitory activities of compounds of the invention against the GSK 3α enzyme isoform (Invitrogen), are evaluated by determining the level of activation/phosphorylation of the target peptide. The GSK3-α protein (500 ng/mL, 2.5 μL) is mixed with the test compound (2.5 μL at either 4 μg/mL, 0.4 μg/mL, 0.04 μg/mL, or 0.004 μg/mL) for 2 hr at RT. The FRET peptide (8 μM, 2.5 μL), which is a phosphorylation target for GSK3α, and ATP (40 μM, 2.5 μL) are then added to the enzyme/compound mixture and the resulting mixture incubated for 1 hr. Development reagent (protease, 5 μL) is added for 1 hr prior to detection in a fluorescence microplate reader (Varioskan® Flash, ThermoFisher Scientific).
In all cases, the site-specific protease cleaves non-phosphorylated peptide only and eliminates the FRET signal. Phosphorylation levels of each reaction are calculated using the ratio of coumarin emission (donor) over fluorescein emission (acceptor), for which high ratios indicate high phosphorylation and low ratios indicate low phosphorylation levels.

PBMCs [2] = assay: IL-2 and IFN gamma release in CD3/CD28 stimulated PBMC cells; type: cell-based; settings: Homo sapiens
Experimental: PBMCs from healthy subjects are separated from whole blood using a density gradient (Lymphoprep, Axis-Shield Healthcare). Cells are added to a 96 well plate pre-coated with a mixture of CD3/CD38 monoclonal antibodies (0.3 μg/mL eBioscience and 3 μg/mL BD Pharmingen respectively). Compound at the desired concentration is then added to the wells and the plate left for 3 days under normal tissue culture conditions. Supernatants are harvested and IL-2 and IFN gamma release determined by Sandwich ELISA (Duo-set, R&D System). The IC50 is determined from the dose response curve.

Chain of GSK3α (P49840 whole entry): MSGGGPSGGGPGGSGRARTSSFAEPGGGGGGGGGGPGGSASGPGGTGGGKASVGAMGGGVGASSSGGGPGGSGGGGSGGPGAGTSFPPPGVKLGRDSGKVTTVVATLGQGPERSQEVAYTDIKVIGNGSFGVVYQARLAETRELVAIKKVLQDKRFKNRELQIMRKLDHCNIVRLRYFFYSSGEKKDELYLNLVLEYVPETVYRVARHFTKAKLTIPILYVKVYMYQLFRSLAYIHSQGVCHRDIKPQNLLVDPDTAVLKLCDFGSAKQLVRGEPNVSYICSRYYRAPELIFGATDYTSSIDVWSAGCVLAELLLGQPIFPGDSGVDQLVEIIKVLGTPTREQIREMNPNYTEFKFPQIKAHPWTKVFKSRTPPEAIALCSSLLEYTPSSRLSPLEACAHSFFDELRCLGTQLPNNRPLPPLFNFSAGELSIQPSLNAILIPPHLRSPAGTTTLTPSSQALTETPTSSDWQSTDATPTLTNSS

Compound | IC50 (PBMCs [1]) [nM] | IC50 (GSK3α) [nM] | IC50 (PBMCs [1]; LPS-stimulated PBMCs) [nM] | IC50 (PBMCs [2]; read-out: IC50 Values for Inhibition of Cytokine Release PBMCs IFNγ) [nM] | IC50 (PBMCs [2]; read-out: IC50 Values for Inhibition of Cytokine Release PBMCs IL-2) [nM]
COCCOCCOCCOc1cccc(Nc2nccc(Oc3ccc(NC(=O)Nc4cc(C(C)(C)C)nn4-c4ccc(OC)nc4)c4ccccc34)n2)c1 [Example 4, 1-(3-(tert-Butyl)-1-(6-methoxypyridin-3-yl)-1H-pyrazol-5-yl)-3-(4-((2-((3-(2-(2-(2-methoxy-ethoxy)ethoxy)ethoxy)phenyl)amino)pyrimidin-4-yl)oxy)naphthalen-1-yl)urea] | 1.7 | – | – | – | –
COc1ccc(-n2nc(C(C)(C)C)cc2NC(=O)Nc2ccc(Oc3ccnc(Nc4cccc(OC(N)=O)c4)n3)c3ccccc23)cn1 [Example 5, 3-(4-((4-(3-(3-(tert-Butyl)-1-(6-methoxypyridin-3-yl)-1H-pyrazol-5-yl)ureido)naphthalen-1-yl)oxy)pyrimidin-2-yl)amino)phenyl carbamate] | 1.9 | 306 | – | – | –
COc1ccc(-n2nc(C(C)(C)C)cc2NC(=O)Nc2ccc(Oc3ccnc(Nc4cccc(SCCO)c4)n3)c3ccccc23)cn1 [Example 6] | 1.6 | 501 | – | – | –
COc1ccc(-n2nc(C(C)(C)C)cc2NC(=O)Nc2ccc(Oc3ccnc(Nc4cccc([S+]([O-])C5CC5)c4)n3)c3ccccc23)cn1 (stereo not shown) [Example 7, 1-(3-(tert-Butyl)-1-(6-methoxypyridin-3-yl)-1H-pyrazol-5-yl)-3-(4-((2-((3-(cyclopropyl-sulfinyl)phenyl)amino)pyrimidin-4-yl)oxy)naphthalen-1-yl)urea] | 0.9 | 125 | – | – | –
COc1ccc(-n2nc(C(C)(C)C)cc2NC(=O)Nc2ccc(Oc3ccnc(Nc4cccc(S(=O)(=O)C5CC5)c4)n3)c3ccccc23)cn1 [Example 8, 1-(3-(tert-Butyl)-1-(6-methoxypyridin-3-yl)-1H-pyrazol-5-yl)-3-(4-((2-((3-(cyclopropyl-sulfonyl)phenyl)amino)pyrimidin-4-yl)oxy)naphthalen-1-yl)urea] | 1 | 258 | – | – | –
COc1cc(N=S(C)(C)=O)cc(Nc2nccc(Oc3ccc(NC(=O)Nc4cc(C(C)C)nn4-c4ccc(C)cc4)c4ccccc34)n2)c1 [Example 16, 3-(5-Methoxy((4-((4-(3-(3-isopropyl-1-(p-tolyl)-1H-pyrazol-5-yl)ureido)naphthalen-1-yl)-oxy)pyrimidin-2-yl)amino))phenyl-S,S-dimethyl-N-phenyl sulfoximine] | – | – | 1.7 | – | –
Cc1ccc(-n2nc(C(C)C)cc2NC(=O)Nc2ccc(Oc3ccnc(Nc4cccc(S(=O)(=O)C5CC5)c4)n3)c(Cl)c2Cl)cc1 [Example 24, 1-(2,3-Dichloro-4-((2-((3-(cyclopropylsulfonyl)phenyl)amino)pyrimidin-4-yl)oxy)phenyl)-3-(3-isopropyl-1-(p-tolyl)-1H-pyrazol-5-yl)urea] | 3.8 | 117 | – | – | –
COc1cc(Nc2nccc(Oc3ccc(NC(=O)Nc4cc(C(C)C)nn4-c4ccc(C)cc4)c(F)c3F)n2)cc(OCCN2CCOCC2)c1 [Example 25, 1-(2,3-Difluoro-4-((2-((3-methoxy-5-(2-morpholinoethoxy)phenyl)amino)pyrimidin-4-yl)oxy)phenyl)-3-(3-isopropyl-1-(p-tolyl)-1H-pyrazol-5-yl)urea] | 2 | 804 | – | – | –
COc1cc(N=S(C)(C)=O)cc(Nc2nccc(Oc3ccc(NC(=O)Nc4cc(C(C)C)nn4-c4ccc(C)cc4)c(Cl)c3Cl)n2)c1 [Example 26] | 3.9 | 426 | – | – | –
COCCOCCOCCOc1cc(Nc2nccc(Oc3ccc(NC(=O)Nc4cc(C(C)C)nn4-c4ccc(C)cc4)c4ncccc34)n2)cc(OC)c1 [Example 27, 1-(3-Isopropyl-1-(P-tolyl)-1H-pyrazol-5-yl)-3-(5-((2-((3-methoxy-5-(2-(2-(2-methoxy-ethoxy)ethoxy)ethoxy)phenyl)amino)pyrimidin-4-yl)oxy)quinolin-8-yl)urea] | 24.8 | > 10000 | – | – | –
COc1cc(Nc2nccc(Oc3ccc(NC(=O)Nc4cc(C(C)C)nn4-c4ccc(C)cc4)c4ncccc34)n2)cc(OCCN2CCOCC2)c1 [Example 28, 1-(3-Isopropyl-1-(P-tolyl)-1H-pyrazol-5-yl)-3-(5-((2-((3-methoxy-5-(2-morpholinoethoxy)-phenyl)amino)pyrimidin-4-yl)oxy)quinolin-8-yl)urea] | 24 | > 10000 | – | – | –
COCCOCCOCCSc1cc(Nc2nccc(Oc3ccc(NC(=O)Nc4cc(C(C)C)nn4-c4ccc(C)cc4)c4ccccc34)n2)cc(OC)c1 [Example 31, 1-(3-Isopropyl-1-(P-tolyl)-1H-pyrazol-5-yl)-3-(4-((2-((3-methoxy-5-((2-(2-(2-methoxy-ethoxy)ethoxy)ethyl)thio)phenyl)amino)pyrimidin-4-yl)oxy)naphthalen-1-yl)urea] | 4.4 | > 10000 | – | – | –
COCCOCCOCCOc1cc(Nc2nccc(Oc3ccc(NC(=O)Nc4cc(C(C)C)nn4-c4ccc(C)cc4)c4ccccc34)n2)cc(OC(F)(F)F)c1 [Example 33, 1-(3-Isopropyl-1-(p-tolyl)-1H-pyrazol-5-yl)-3-(4-((2-((3-(2-(2-(2-methoxyethoxyl)ethoxy)-ethoxy)-5-(trifluoromethoxy)phenyl)amino)pyrimidin-4-yl)oxy)naphthalen-1-yl)urea] | 8.7 | > 10000 | – | – | –
COCCOCCOCCOc1cc(Nc2nccc(Oc3ccc(NC(=O)Nc4cc(C(C)C)nn4-c4ccc(C)cc4)c4ccccc34)n2)cc(C(F)(F)F)c1 [Example 34] | 12.2 | > 10000 | – | – | –
COCCOCCOCCS(=O)(=O)c1cc(Nc2nccc(Oc3ccc(NC(=O)Nc4cc(C(C)C)nn4-c4ccc(C)cc4)c4ccccc34)n2)cc(OC)c1 [Example 36, 1-(3-Isopropyl-1-(p-tolyl)-1H-pyrazol-5-yl)-3-(4-((2-((3-methoxy-5-((2-(2-(2-methoxy-ethoxy)ethoxy)ethyl)sulfonyl)phenyl)amino)pyrimidin-4-yl)oxy)naphthalen-1-yl)urea] | 2.5 | 596 | – | – | –
Cc1ccc(-n2nc(C(C)(C)C)cc2NC(=O)Nc2ccc(Oc3ccnc(Nc4cccc(S(=O)(=O)C5CC5)c4)n3)c3ccccc23)cc1 [Example 46, 1-(3-(tert-Butyl)-1-(p-tolyl)-1H-pyrazol-5-yl)-3-(4-((2-((3-(cyclopropylsulfonyl)phenyl)-amino)pyrimidin-4-yl)oxy)naphthalen-1-yl)urea] | 2.7 | 172 | – | – | –
COCCOCCOCCOc1cc(F)cc(Nc2nccc(Oc3ccc(NC(=O)Nc4cc(C(C)(C)C)nn4-c4ccc(C)cc4)c4ccccc34)n2)c1 [Example 50, 1-(3-(tert-Butyl)-1-(p-tolyl)-1H-pyrazol-5-yl)-3-(4-((2-((3-fluoro-5-(2-(2-(2-methoxyethoxy)-ethoxy)ethoxy)phenyl)amino)pyrimidin-4-yl)oxy)naphthalen-1-yl)urea] | 8.6 | 3030 | – | – | –
COc1cc(Nc2nccc(Oc3ccc(NC(=O)Nc4cc(C(C)(C)C)nn4-c4ccc(C)cc4)c4ccccc34)n2)cc(OCCOCCOCCN2CCOCC2)c1 [Example 58, 1-(3-(tert-Butyl)-1-(p-tolyl)-1H-pyrazol-5-yl)-3-(4-((2-((3-methoxy-5-(2-(2-(2-morpholinoethoxy)ethoxy)ethoxy)phenyl)amino)pyrimidin-4-yl)oxy)naphthalen-1-yl)urea] | – | – | – | 1.3 | 39.6
COc1cc(Nc2nccc(Oc3ccc(NC(=O)Nc4cc(C(C)(C)C)nn4-c4ccc(C)cc4)c(Cl)c3Cl)n2)cc(OCCN2CCOCC2)c1 [Example 59, 1-(3-(tert-Butyl)-1-(p-tolyl)-1H-pyrazol-5-yl)-3-(2,3-dichloro-4-((2-((3-methoxy-5-(2-morpholinoethoxy)phenyl)amino)pyrimidin-4-yl)oxy)phenyl)urea] | 4.2 | – | – | – | –
COCCOCCOCCN(C)c1cc(Nc2nccc(Oc3ccc(NC(=O)Nc4cc(C(C)(C)C)nn4-c4ccc(C)cc4)c4ccccc34)n2)cc(OC)c1 [Example 67, 1-(3-(tert-Butyl)-1-(p-tolyl)-1H-pyrazol-5-yl)-3-(4-((2-((3-methoxy-5-((2-(2-(2-methoxyethoxy)ethoxy)ethyl)(methyl)amino)phenyl)amino)pyrimidin-4-yl)oxy)naphthalen-1-yl)urea] | 3.5 | – | – | – | –
COc1cc(Nc2nccc(Oc3ccc(NC(=O)Nc4cc(C(C)(C)C)nn4-c4ccc(C)cc4)c(Cl)c3Cl)n2)cc(S(=O)(=O)C2CC2)c1 [Example 68, 1-(3-(tert-Butyl)-1-(p-tolyl)-1H-pyrazol-5-yl)-3-(2,3-dichloro-4-((2-((3-(cyclopropylsulfonyl)-5-methoxyphenyl)amino)pyrimidin-4-yl)oxy)phenyl)urea] | 5.2 | – | – | – | –
